The values below are quoted from earlier work in publication PMC12356143 (RSC Medicinal Chemistry, 2025).

One data set has as its system FIPV M^pro. Conditions: literature value; cited from earlier work.
Another data set relates to M^pro WT. Conditions: literature value; cited from earlier work.

Turning to `COc1cccc2[nH]c(C(=O)NC(CC3CC3)C(=O)NC(CC3CCNC3=O)C(O)S(=O)(=O)O)cc12` (stereo not shown) [compound 4], in the data set on FIPV M^pro, the IC50 (commonly the midpoint of a concentration-inhibition curve) was 60 ± 20 nM.
On to `CC(C)CC(NC(=O)OCc1ccccc1)C(=O)NC(CC1CCNC1=O)C(O)S(=O)(=O)O` (stereo not shown) [GC376], for which the concentration for half-maximal inhibition (IC50) with FIPV M^pro was 130 ± 20 nM.
Regarding 2-Abz-SVTLQ↓SGY^(NO2)R-OH, in the data set with M^pro WT, the “K M” value is 80 × 10^−6 (lit. [10]) M and the k cat was 2.25 ± 0.1 (lit. [10]) s^−1.
As for “Dabcyl-KTSAVLQ↓SGFRKME(Edans)-NH2 [Dabcyl-KTSAVLQ↓S GFRKME(Edans)-NH2]”, in the data set with M^pro WT, the “K M” value was 4.6 × 10^−6 (lit. [23]) M and the k cat was 0.29 ± 0.03 (lit. [23]) s^−1.
Take `O=C(NC(CC1CC1)C(=O)NC(CC1CCNC1=O)C(O)S(=O)(=O)O)OCCc1cccc(Cl)c1` (stereo not shown) [compound 5]: the IC50 in the data set on FIPV M^pro is 50 ± 20 nM.
